The subject of assay [1] is A-431. The experiment in a line: Growth inhibition of human A431 cells overexpressing EGFR after 72 hrs by MTT assay. It is filed as functional. To be noted: A-431, 72 h. For orientation: Tetrazolium dyes change colour on reduction, which living cells bring about.
For assay [2], the target named is Receptor tyrosine-protein kinase erbB-2 (Homo sapiens) (UniProt P04626). The experiment in a line: Inhibition of HER2 at 1 uM.
Assay [3] concerns the target Vascular endothelial growth factor receptor 2 (Homo sapiens, UniProt P35968). The assay can be described thus: Inhibition of KDR.
The subject of assay [4] is A-431. The experiment in a line: Inhibition of human CDK in A431 cells assessed as inhibition of phosphorylation of Rb at 1 uM after 12 hrs. It is filed as cell-based.

Molecules are shown by their SMILES. Active and inactive are the calls of the source. No cut-off for these calls is given here.

Chain of Vascular endothelial growth factor receptor 2 (P35968 whole entry): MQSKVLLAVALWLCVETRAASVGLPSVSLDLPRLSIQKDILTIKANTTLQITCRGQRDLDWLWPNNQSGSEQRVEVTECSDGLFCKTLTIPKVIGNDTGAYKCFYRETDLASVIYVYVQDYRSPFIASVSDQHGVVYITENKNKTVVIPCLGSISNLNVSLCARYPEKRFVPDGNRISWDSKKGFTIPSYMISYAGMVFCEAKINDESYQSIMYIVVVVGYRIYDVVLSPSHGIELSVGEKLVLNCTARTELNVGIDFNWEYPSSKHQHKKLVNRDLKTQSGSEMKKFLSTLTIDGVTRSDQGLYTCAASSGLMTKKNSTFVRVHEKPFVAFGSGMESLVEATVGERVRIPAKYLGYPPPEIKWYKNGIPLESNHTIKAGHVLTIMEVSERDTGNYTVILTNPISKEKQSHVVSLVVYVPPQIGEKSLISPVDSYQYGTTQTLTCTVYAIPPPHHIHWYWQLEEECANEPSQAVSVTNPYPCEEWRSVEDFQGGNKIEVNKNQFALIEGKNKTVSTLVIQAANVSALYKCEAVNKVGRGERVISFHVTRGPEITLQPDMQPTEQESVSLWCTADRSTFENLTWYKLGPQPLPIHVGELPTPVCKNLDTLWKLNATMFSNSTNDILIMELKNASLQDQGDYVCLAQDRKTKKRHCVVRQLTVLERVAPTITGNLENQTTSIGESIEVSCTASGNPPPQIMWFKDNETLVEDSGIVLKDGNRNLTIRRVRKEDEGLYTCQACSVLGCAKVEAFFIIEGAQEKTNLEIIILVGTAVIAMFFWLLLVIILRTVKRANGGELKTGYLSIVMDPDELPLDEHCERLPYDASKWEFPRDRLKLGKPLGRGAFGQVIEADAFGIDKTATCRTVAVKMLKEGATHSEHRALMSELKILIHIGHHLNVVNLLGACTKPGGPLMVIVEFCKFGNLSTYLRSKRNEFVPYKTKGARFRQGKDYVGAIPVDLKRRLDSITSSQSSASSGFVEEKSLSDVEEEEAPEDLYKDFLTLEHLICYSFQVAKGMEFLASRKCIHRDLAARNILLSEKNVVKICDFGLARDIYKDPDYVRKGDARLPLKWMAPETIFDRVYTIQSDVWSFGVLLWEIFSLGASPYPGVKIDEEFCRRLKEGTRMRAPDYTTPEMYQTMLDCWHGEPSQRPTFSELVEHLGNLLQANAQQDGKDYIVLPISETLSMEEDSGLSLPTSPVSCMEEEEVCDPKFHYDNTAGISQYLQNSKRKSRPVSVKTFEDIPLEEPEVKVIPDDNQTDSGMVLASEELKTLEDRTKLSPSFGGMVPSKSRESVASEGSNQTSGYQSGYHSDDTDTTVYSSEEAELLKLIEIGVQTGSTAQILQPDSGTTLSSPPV
Chain of Receptor tyrosine-protein kinase erbB-2 (Homo sapiens) (P04626 whole entry): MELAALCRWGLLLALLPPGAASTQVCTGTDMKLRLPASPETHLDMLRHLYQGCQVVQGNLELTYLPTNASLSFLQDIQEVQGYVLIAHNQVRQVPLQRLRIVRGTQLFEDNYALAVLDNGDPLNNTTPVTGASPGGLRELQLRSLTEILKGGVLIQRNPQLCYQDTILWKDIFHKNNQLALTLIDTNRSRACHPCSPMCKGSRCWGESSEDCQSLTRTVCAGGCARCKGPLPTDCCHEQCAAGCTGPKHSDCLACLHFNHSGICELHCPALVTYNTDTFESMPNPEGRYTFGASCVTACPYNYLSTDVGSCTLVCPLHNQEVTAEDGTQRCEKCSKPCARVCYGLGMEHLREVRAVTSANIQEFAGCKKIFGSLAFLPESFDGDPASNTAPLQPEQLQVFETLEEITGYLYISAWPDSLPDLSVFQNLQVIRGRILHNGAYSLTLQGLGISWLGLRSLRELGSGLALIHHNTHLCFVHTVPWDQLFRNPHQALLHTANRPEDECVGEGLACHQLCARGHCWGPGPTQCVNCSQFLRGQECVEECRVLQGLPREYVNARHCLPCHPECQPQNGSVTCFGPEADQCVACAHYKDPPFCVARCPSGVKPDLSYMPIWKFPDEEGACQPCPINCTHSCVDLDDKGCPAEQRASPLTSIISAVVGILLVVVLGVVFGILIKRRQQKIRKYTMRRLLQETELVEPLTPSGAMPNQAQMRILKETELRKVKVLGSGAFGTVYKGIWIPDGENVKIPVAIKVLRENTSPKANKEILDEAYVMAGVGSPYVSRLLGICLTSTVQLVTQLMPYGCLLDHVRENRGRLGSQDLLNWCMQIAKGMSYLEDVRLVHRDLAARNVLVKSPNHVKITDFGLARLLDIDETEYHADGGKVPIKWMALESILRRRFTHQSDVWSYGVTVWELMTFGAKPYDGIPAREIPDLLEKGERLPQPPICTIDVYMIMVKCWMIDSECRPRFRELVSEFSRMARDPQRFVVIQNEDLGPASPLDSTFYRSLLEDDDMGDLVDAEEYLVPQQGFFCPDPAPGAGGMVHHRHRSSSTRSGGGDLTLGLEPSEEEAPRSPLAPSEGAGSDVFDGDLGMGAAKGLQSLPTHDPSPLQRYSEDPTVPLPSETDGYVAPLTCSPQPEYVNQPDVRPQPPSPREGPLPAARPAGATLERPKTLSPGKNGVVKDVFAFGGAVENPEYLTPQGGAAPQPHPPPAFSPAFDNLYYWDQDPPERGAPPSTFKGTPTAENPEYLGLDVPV

In general, GI50 refers to the concentration giving 50% growth inhibition. As usually defined, the inhibition is how much of the control response was suppressed. Low readings indicate a weak effect, high ones a strong effect. Usually IC50 stands for the concentration at which inhibition is half-maximal. Read a low IC50 as inhibition by little substance. For `Nc1ccc(NC(=O)Nc2cccc3c2C(=O)c2c-3n[nH]c2-c2ccc(O)cc2)cc1`, the 50% growth inhibitory concentration (GI50) in the assay on A-431 [1] is above 10000 nM. The molecule further gave an inhibition in assay [2] of 7%. This molecule also yielded an IC50 in assay [3] of 650 nM.
`COc1ccc(-c2[nH]nc3c2C(=O)c2c(NC(=O)Nc4ccc(O)cc4)cccc2-3)cc1` displayed a GI50 with A-431 [1] above 10000 nM. In assay [2], this molecule showed an inhibition of 8%.
The matching figures for `COc1ccc(-c2[nH]nc3c2C(=O)c2c(NC(=O)Nc4ccc(N)cc4)cccc2-3)cc1`: 1590 nM and 6%.
As for `O=C(Nc1ccc(O)cc1)Nc1cccc2c1C(=O)c1c-2n[nH]c1-c1ccc2c(c1)OCO2`, the GI50 with A-431 [1] is 56 nM. In assay [2], this molecule yielded an inhibition of 2%. In assay [3], this molecule came in with an IC50 of 700 nM. Further, in the assay on A-431 [4], the result was Active.
On the same counts, the results for `Nc1ccc(NC(=O)Nc2cccc3c2C(=O)c2c-3n[nH]c2-c2ccc3c(c2)OCO3)cc1` are 62 nM, 28%, 380 nM and “Active”.
In the case of `Nc1ccc(NC(=O)Nc2cccc3c2C(=O)c2c-3n[nH]c2-c2ccc(O)c(O)c2)cc1`, in the assay with A-431 [1], the GI50 came out at 4790 nM. Besides, the inhibition in assay [2] was 3%.

Values taken from ChEMBL document CHEMBL1140772, “Discovery of indenopyrazoles as EGFR and VEGFR-2 tyrosine kinase inhibitors by in silico high-throughput screening” (Bioorg Med Chem Lett, 2008).
